Entries after “also recorded” stand apart in the source; their conditions may differ.
What was measured:
C57BL/6J wild-type mice [1] = assay: Acetaminophen-induced liver injury model in mice; format: in vivo; settings: for Necrotic Area (%) of the liver (liver tissue protection): 5 mg/kg and 10 mg/kg i.v. 1 h after APAP 300 mg/kg i.p.; for Necrotic Area (%) of the liver (liver tissue protection) / ALT biomarker level / AST biomarker level: vs APAP alone
Experimental: C57BL/6J wild-type mice were purchased from Guangdong Medical Animal Centre (Guangzhou, China). Male mice (n=8, 8 weeks of age) were randomly assigned to the different treatment groups. Mice were acclimatized to their environment for 1 week before the experiments. Animals were fasted overnight, but allowed access to water, before acetaminophen (APAP) administration.
APAP (Sigma Aldrich) was dissolved in warm phosphate-buffered saline (PBS; 55° C.) that was cooled to 37° C. before injection and administered intraperitoneally with APAP at a dose of 300 mg/kg after 15 hours of starvation. Compound 1 was made fresh for each experiment in sterile 0.9% saline at 20 mg/ml. N-acetylcysteine (NAC, Sigma Aldrich) was made fresh for each experiment in 0.9% saline at 20 mg/ml.
After APAP administration (1 hours), either PBS (Control Group), Compound 1 (10 mg/kg, 5 mg/kg, 2.5 mg/kg, 1 mg/kg) or NAC (150 mg/kg) were injected intravenously in the tail vein of mice. In the Control Group, the mice were injected with phosphate-buffered saline vehicle (labelled “Ctrl” in the Figures), in the Vigilance Group the mice were injected with Compound 1 (labelled “v-Compound 1-10 mg” in the Figures). In both the Control and Vigilance Groups, no APAP was administered.
Mice were sacrificed at 6 and 24 hours after administration of APAP. Blood samples and livers were harvested for serum ALT (alanine aminotransferase) and AST (aspartate aminotransferase), and histology. ALT and AST in serum samples were detected using the alanine aminotransferase assay kit (S03030) and the aspartate aminotransferase assay kit (S03040) and automated clinical chemistry analyzer (Chemray 800) from Rayto.
All liver sections were stained with a hematoxylin and eosin (H&E) stain. Necrotic area was measured and expressed as a percentage of necrotic tissue in whole area of liver section. All animal procedures were approved by the Laboratory Animals Ethics Committee of Jinan University (Guangzhou, China).

C57BL/6J wild-type mice [2] = assay: Alcohol-induced liver injury in mice (chronic 8 weeks ethanol diet plus multiple binges, E8w+nB); format: in vivo; settings: 10 mg/kg i.p. daily for the last two weeks of 8 weeks alcohol plus binges
Excerpt: C57BL/6J wild-type mice were purchased from Guangdong Medical Animal Centre (Guangzhou, China). Male mice (n=7, 8 weeks of age) were randomly assigned to the different treatment groups. The mice were initially fed a controlled Lieber-DeCarli diet ad libitum for 5 days (TP4030C, Trophic Animal Feed High-Tech Co., Ltd, China) to acclimatize them to a liquid diet. Subsequently, the ethanol-fed groups were allowed free access for 8 weeks to an ethanol diet (TP4030D, Trophic) containing 5% (vol/vol) ethanol.
Chronic (8 weeks)-plus-multiple binges (E8w+nB): mice were fed an ethanol Lieber-DeCarli diet for 8 weeks as described above and treated by gavage administration twice a week (5 g/kg ethanol) during the 8-week feeding. Mice were euthanized 9 h post gavage.
The control mice were pair-fed an isocaloric control liquid diet for 8 weeks (P8w), followed by gavage administration of isocaloric liquid dextrin-maltose (Ctrl), without exposure to alcohol.
Compound 1 was made fresh for each experiment in sterile 0.9% saline at 20 mg/ml and administered intraperitoneally (10 mg/kg) daily for the last two weeks.
Blood samples and livers were harvested for serum ALT and AST, and histology. All liver sections were stained with H&E and Oil Red O staining. The features of alcoholic liver disease (“ALD”) are scored according to the non-alcoholic fatty liver disease (“NAFLD”) activity score (“NAS”) originally developed to measure changes in NAFLD during therapeutic trials but is also applicable to ALD. The ALD score of each group was calculated according to standard procedures.
Oil Red O is a fat-soluble azo dye, used to stain fats, specifically neutral triglycerides, lipids and lipoproteins in tissues and cells. […] The Oil Red O quantification “a.v.” means a subjective quantity, i.e., “arbitrary value”. The image quantification software ImageJ was used to select the area of oil red staining in liver sections and the area of lipid droplets in quantitative sections.

[3] = 5 mg/kg and 10 mg/kg i.v., 6 hours after APAP
[4] = 5 mg/kg and 10 mg/kg i.v., 24 hours after APAP
[5] = all Compound 1 levels (1, 2.5, 5, 10 mg/kg i.v.), 6 hours after APAP
[6] = all Compound 1 levels (1, 2.5, 5, 10 mg/kg i.v.), 24 hours after APAP

C/C=C/C[C@@H](C)[C@@H](O)[C@H]1C(=O)N[C@@H](CC)C(=O)N(C)[C@H](OCCN(C)C)C(=O)N(C)[C@@H](CC(C)C)C(=O)N[C@@H](C(C)C)C(=O)N(C)[C@@H](CC(C)C)C(=O)N[C@@H](C)C(=O)N[C@H](C)C(=O)N(C)[C@@H](CC(C)C)C(=O)N(C)[C@@H](CC(C)C)C(=O)N(C)[C@@H](C(C)C)C(=O)N1C [Compound 1, [(R)-2′(2-dimethylaminoethoxy)-Sar]^3 cyclosporin A]
TNF-α, IL-1β, and/or IL-6 inflammation biomarker levels of the liver (C57BL/6J wild-type mice [1]; 2.5 mg/kg, 5 mg/kg and 10 mg/kg i.v., 6 hours after APAP): reduced | Necrotic Area (%) of the liver (liver tissue protection) (C57BL/6J wild-type mice [1]; 6 hours after APAP): showed liver tissue protection; also recorded: reduced necrotic area | Necrotic Area (%) of the liver (liver tissue protection) (C57BL/6J wild-type mice [1]; 24 hours after APAP): showed liver tissue protection; also recorded: reduced necrotic area | IL-1β inflammation biomarker (ELISA) (C57BL/6J wild-type mice [1]; [3]): reduced | IL-6 inflammation biomarker (ELISA) (C57BL/6J wild-type mice [1]; [3]): reduced | TNF-α inflammation biomarker (ELISA) (C57BL/6J wild-type mice [1]; [3]): reduced | ALT biomarker level (C57BL/6J wild-type mice [1]; [3]): reduced | AST biomarker level (C57BL/6J wild-type mice [1]; [3]): reduced | IL-1β inflammation biomarker (ELISA) (C57BL/6J wild-type mice [1]; [4]): reduced | IL-6 inflammation biomarker (ELISA) (C57BL/6J wild-type mice [1]; [4]): reduced | TNF-α inflammation biomarker (ELISA) (C57BL/6J wild-type mice [1]; [4]): reduced | ALT biomarker level (C57BL/6J wild-type mice [1]; [4]): reduced | AST biomarker level (C57BL/6J wild-type mice [1]; [4]): reduced | serum ALT (alanine aminotransferase) biomarker level (C57BL/6J wild-type mice [1]; [5]): reduced | serum AST (aspartate aminotransferase) biomarker level (C57BL/6J wild-type mice [1]; [5]): reduced | TNF-α, IL-1β, and/or IL-6 inflammation biomarker levels of the liver (C57BL/6J wild-type mice [1]; [6]): reduced | serum ALT (alanine aminotransferase) biomarker level (C57BL/6J wild-type mice [1]; [6]): reduced | serum AST (aspartate aminotransferase) biomarker level (C57BL/6J wild-type mice [1]; [6]): reduced | serum ALT (alanine aminotransferase) level (C57BL/6J wild-type mice [2]; vs untreated ALD): reduces | serum AST (aspartate aminotransferase) level (C57BL/6J wild-type mice [2]; vs untreated ALD): reduces | hepatic lipid accumulation (Oil Red O liver staining, a.v.) (C57BL/6J wild-type mice [2]; vs untreated ALD Group): reduces hepatic lipid accumulation

— patent US20260240941A1, “TREATMENT AND PREVENTION OF AGENT-INDUCED LIVER CONDITIONS OR DISEASES” (FARSIGHT MEDICAL TECHNOLOGY (SHANGHAI) CO., LTD., priority 2023, published 2026)
